{
  "source": "ChEMBL document CHEMBL5325413",
  "about": "“Optimization of BAX trigger site activator BTSA1 with improved antitumor potency and in vitro ADMET properties” (Eur J Med Chem, 2023)",
  "key": {"A549 [1]": {"test_system": "A549", "assay": "Induction of apoptosis in human A549 cells assessed as early apoptotic cells at 10 uM incubated for 48 hrs by Annexin V-FITC/PI staining based flow cytometry analysis (reference value: 0.708%)", "assay_type": "functional"}, "A549 [2]": {"test_system": "A549", "assay": "Induction of apoptosis in human A549 cells assessed as dead cells at 10 uM incubated for 48 hrs by Annexin V-FITC/PI staining based flow cytometry analysis (reference value: 0.739%)", "assay_type": "functional"}, "A549 [3]": {"test_system": "A549", "assay": "Induction of apoptosis in human A549 cells assessed as upregulation of BAX translocation at 20 uM incubated for 24 hrs by Western blot analysis", "assay_type": "functional, cell-based"}, "A549 [4]": {"test_system": "A549", "assay": "Antiproliferative activity against human A549 cells assessed as reduction in cell viability at 1 to 5 uM by MTT assay", "assay_type": "functional, cell-based", "settings": "dose 1-5 µM, time 24-72 hrs, TDE = time-dependent effect"}, "MV4-11": {"test_system": "MV4-11", "assay": "Antiproliferative activity against human MV4-11 cells expressing BAX assessed as cell growth inhibition incubated for 72 hrs by trypan blue cell counting analysis", "assay_type": "functional"}, "A549 [5]": {"test_system": "A549", "assay": "Inhibition of colony formation in human A549 cells incubated for 2 weeks by crystal violet staining based analysis", "assay_type": "functional, cell-based", "settings": "dose 1-3 µM"}, "A549 [6]": {"test_system": "A549", "assay": "Inhibition of colony formation in human A549 cells at 3 uM incubated for 2 weeks by crystal violet staining based analysis relative to control", "assay_type": "functional", "settings": "A549, 336 h"}, "A549 [7]": {"test_system": "A549", "assay": "Induction of apoptosis in human A549 cells assessed as live cells at 5 uM incubated for 48 hrs by Annexin V-FITC/PI staining based flow cytometry analysis (reference value: 95.9 %)", "assay_type": "functional"}, "A549 [8]": {"test_system": "A549", "assay": "Induction of apoptosis in human A549 cells assessed as late apoptotic cells at 5 uM incubated for 48 hrs by Annexin V-FITC/PI staining based flow cytometry analysis (reference value: 2.52%)", "assay_type": "functional"}, "A549 [9]": {"test_system": "A549", "assay": "Induction of apoptosis in human A549 cells assessed as live cells at 10 uM incubated for 48 hrs by Annexin V-FITC/PI staining based flow cytometry analysis (reference value: 95.9 %)", "assay_type": "functional"}, "A549 [10]": {"test_system": "A549", "assay": "Induction of apoptosis in human A549 cells assessed as early apoptotic cells at 10 uM incubated for 48 hrs by Annexin V-FITC/PI staining based flow cytometry analysis (reference value: 1.09 %)", "assay_type": "functional"}, "A549 [11]": {"test_system": "A549", "assay": "Induction of apoptosis in human A549 cells assessed as total apoptotic cells at 5 uM incubated for 48 hrs by Annexin V-FITC/PI staining based flow cytometry analysis (reference value: 4.26%)", "assay_type": "functional"}, "A549 [12]": {"test_system": "A549", "assay": "Induction of cell cycle arrest in human A549 cells assessed as accumulation of cells at G0/G1 phase at 2.5 uM incubated for 48 hrs by RNase/PI staining based flow cytometry analysis (reference value: 54.82%)", "assay_type": "functional"}, "A549 [13]": {"test_system": "A549", "assay": "Induction of cell cycle arrest in human A549 cells assessed as accumulation of cells at S phase at 2.5 uM incubated for 48 hrs by RNase/PI staining based flow cytometry analysis (reference value: 26.01%)", "assay_type": "functional"}, "A549 [14]": {"test_system": "A549", "assay": "Induction of cell cycle arrest in human A549 cells assessed as accumulation of cells at S phase at 5 uM incubated for 48 hrs by RNase/PI staining based flow cytometry analysis (reference value: 26.01%)", "assay_type": "functional"}, "A549 [15]": {"test_system": "A549", "assay": "Induction of cell cycle arrest in human A549 cells assessed as accumulation of cells at G2/M phase at 5 uM incubated for 48 hrs by RNase/PI staining based flow cytometry analysis (reference value: 18.97%)", "assay_type": "functional"}, "[16]": {"molecular_target": "Apoptosis regulator BAX (Homo sapiens) (UniProt Q07812)", "sequence (Q07812 whole entry)": "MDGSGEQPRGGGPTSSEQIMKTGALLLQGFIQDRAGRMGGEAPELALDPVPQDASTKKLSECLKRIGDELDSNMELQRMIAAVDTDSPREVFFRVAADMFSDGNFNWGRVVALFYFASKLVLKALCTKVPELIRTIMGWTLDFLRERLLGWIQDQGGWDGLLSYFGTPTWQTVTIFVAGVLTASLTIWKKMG", "assay": "Activation of BAX in human A549 cells at 20 uM incubated for 24 hrs by NP-40 based immunoprecipitation analysis", "assay_type": "cell-based", "settings": "filed as activator"}, "[17]": {"molecular_target": "Apoptosis regulator BAX (Homo sapiens) (UniProt Q07812)", "assay": "Activation of BAX in human A549 cells assessed as increase in cytochrome-c release incubated for 24 hrs by Western blot analysis", "assay_type": "cell-based", "settings": "filed as activator, dose 5-40 µM"}, "[18]": {"assay": "Metabolic stability in human liver microsomes assessed as parent compound remaining at 100 uM incubated for 60 mins in presence of NADPH by LC-MS/MS analysis"}, "[19]": {"assay": "Metabolic stability in mouse liver microsomes assessed as parent compound remaining at 100 uM incubated for 60 mins in absence of NADPH by LC-MS/MS analysis"}, "[20]": {"assay": "Stability in rat plasma assessed as compound remaining measured after 10 mins", "assay_type": "ADME, cell-free", "settings": "read-out: Stability"}, "[21]": {"assay": "Stability in rat plasma assessed as compound remaining measured after 30 mins", "assay_type": "ADME, cell-free", "settings": "read-out: Stability"}, "[22]": {"assay": "Stability in rat plasma assessed as half life", "assay_type": "ADME, cell-free"}, "[23]": {"assay": "Drug recovery in human liver microsomes at 100 uM incubated for 60 mins in absence of NADPH by LC-MS/MS analysis", "assay_type": "ADME, Microsome", "settings": "read-out: Drug recovery"}, "Cytochrome P450 1A2": {"molecular_target": "T1, Cytochrome P450 1A2 (Homo sapiens, UniProt P05177)", "T1 sequence (P05177 whole entry)": "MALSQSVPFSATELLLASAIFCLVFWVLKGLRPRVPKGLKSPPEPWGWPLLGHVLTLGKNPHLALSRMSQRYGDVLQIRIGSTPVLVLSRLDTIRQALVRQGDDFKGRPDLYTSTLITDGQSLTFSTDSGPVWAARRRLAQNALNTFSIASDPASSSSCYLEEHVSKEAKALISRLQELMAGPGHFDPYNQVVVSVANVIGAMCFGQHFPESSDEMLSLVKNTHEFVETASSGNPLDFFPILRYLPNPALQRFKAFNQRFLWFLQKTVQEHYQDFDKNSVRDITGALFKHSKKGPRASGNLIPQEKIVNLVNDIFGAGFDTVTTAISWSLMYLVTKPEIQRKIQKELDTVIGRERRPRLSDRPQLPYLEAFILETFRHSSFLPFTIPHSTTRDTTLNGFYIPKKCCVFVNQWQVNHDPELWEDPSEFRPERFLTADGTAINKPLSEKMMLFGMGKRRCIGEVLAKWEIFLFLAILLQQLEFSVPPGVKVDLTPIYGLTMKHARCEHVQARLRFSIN", "assay": "Inhibition of CYP1A2 in human liver microsomes using phenacetin as substrate prewarmed for 10 mins followed by NADPH addition and measured after 10 mins by LC-MS/MS analysis"}, "Cytochrome P450 2C9": {"molecular_target": "Cytochrome P450 2C9 (Homo sapiens, UniProt P11712)", "sequence (P11712 whole entry)": "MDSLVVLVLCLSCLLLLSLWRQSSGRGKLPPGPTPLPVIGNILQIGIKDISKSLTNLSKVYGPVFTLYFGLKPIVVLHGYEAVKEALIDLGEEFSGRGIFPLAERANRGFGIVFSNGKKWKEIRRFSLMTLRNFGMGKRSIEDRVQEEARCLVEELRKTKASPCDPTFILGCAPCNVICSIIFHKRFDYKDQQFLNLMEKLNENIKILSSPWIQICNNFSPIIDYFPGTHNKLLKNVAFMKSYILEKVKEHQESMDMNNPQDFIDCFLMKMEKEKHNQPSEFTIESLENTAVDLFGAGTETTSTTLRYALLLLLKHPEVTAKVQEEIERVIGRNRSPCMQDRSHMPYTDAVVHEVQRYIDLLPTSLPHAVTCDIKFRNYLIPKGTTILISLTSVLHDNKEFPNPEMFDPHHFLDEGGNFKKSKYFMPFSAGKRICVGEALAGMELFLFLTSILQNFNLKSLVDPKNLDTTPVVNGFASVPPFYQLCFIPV", "assay": "Inhibition of CYP2C9 in human liver microsomes using diclofenac as substrate prewarmed for 10 mins followed by NADPH addition and measured after 10 mins by LC-MS/MS analysis"}, "Cytochrome P450 2C19": {"molecular_target": "Cytochrome P450 2C19 (Homo sapiens, UniProt P33261)", "sequence (P33261 whole entry)": "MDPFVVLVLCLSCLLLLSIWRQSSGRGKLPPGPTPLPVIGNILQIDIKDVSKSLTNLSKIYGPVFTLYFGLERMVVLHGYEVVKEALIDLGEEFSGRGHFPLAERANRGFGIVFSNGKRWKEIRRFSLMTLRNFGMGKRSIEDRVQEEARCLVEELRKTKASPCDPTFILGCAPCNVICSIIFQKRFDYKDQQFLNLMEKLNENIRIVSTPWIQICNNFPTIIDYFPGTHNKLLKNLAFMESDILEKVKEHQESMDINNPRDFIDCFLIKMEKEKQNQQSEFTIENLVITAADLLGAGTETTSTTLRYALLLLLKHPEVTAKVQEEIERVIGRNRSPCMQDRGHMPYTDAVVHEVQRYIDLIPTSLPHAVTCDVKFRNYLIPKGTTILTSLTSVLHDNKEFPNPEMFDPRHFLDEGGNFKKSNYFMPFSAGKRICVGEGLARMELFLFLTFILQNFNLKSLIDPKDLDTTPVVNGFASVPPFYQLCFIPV", "assay": "Inhibition of CYP2C19 in human liver microsomes using S-mephenytoin as substrate prewarmed for 10 mins followed by NADPH addition and measured after 10 mins by LC-MS/MS analysis"}, "Cytochrome P450 2D6": {"molecular_target": "Cytochrome P450 2D6 (Homo sapiens, UniProt P10635)", "sequence (P10635 whole entry)": "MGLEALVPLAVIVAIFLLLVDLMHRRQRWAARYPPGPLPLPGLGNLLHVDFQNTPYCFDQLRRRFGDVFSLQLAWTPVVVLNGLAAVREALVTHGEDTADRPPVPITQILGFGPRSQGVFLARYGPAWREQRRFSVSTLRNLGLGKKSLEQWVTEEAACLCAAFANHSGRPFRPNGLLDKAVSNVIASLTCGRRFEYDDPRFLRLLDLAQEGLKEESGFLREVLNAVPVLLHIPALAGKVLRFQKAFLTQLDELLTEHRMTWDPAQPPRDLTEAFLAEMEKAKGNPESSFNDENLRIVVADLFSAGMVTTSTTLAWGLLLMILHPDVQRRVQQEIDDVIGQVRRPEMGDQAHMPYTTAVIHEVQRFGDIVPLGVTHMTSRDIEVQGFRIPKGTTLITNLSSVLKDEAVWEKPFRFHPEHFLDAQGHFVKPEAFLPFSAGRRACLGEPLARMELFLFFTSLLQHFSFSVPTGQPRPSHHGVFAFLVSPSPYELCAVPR", "assay": "Inhibition of CYP2D6 in human liver microsomes using dextromethorphan as substrate prewarmed for 10 mins followed by NADPH addition and measured after 10 mins by LC-MS/MS analysis"}, "[24]": {"settings": "human, microsomes, 1 h, 100 µM"}, "[25]": {"settings": "mouse, 1 h, 100 µM"}, "in vitro [26]": {"assay": "in vitro", "settings": "human, liver microsomes"}, "in vitro [27]": {"assay": "in vitro", "settings": "mouse, liver microsomes"}},
  "note": "Activity calls are given as the source filed them. No cut-off for these calls is given here.",
  "data": [
    {"compound": "CN(C)C1CCN(C(=O)c2ccc(N3N=C(c4ccccc4)/C(=N/Nc4ccccc4)C3=O)cc2)CC1", "values": [
      {"measurement": "Activity", "setting": "A549 [1]", "result": 71.2, "unit": "%"},
      {"measurement": "Activity", "setting": "A549 [2]", "result": 0.535, "unit": "%"},
      {"measurement": "Activity", "setting": "A549 [3]", "result": "Active"},
      {"measurement": "Activity", "setting": "A549 [4]", "result": "Tde"},
      {"measurement": "GI50", "setting": "MV4-11", "result": 2.84, "unit": "µM"},
      {"measurement": "inhibition", "setting": "A549 [5]", "result": "Dose-Dependent Effect"},
      {"measurement": "inhibition at 3 µM", "setting": "A549 [6]", "result": "> 50", "unit": "%"},
      {"measurement": "Activity", "setting": "A549 [7]", "result": 84.2, "unit": "%"},
      {"measurement": "Activity", "setting": "A549 [8]", "result": 4.83, "unit": "%"},
      {"measurement": "Activity", "setting": "A549 [9]", "result": 26.1, "unit": "%"},
      {"measurement": "Activity", "setting": "A549 [10]", "result": 55, "unit": "%"},
      {"measurement": "Activity", "setting": "A549 [11]", "result": 15.43, "unit": "%"},
      {"measurement": "Activity", "setting": "A549 [12]", "result": 58.46, "unit": "%"},
      {"measurement": "Activity", "setting": "A549 [13]", "result": 25.51, "unit": "%"},
      {"measurement": "Activity", "setting": "A549 [14]", "result": 27.84, "unit": "%"},
      {"measurement": "Activity", "setting": "A549 [15]", "result": 8.3, "unit": "%"},
      {"measurement": "Activity", "setting": "[16]", "result": "Active"},
      {"measurement": "Activity", "setting": "[17]", "result": "Dose-Dependent Effect"},
      {"measurement": "remaining at 1 h, 100 µM", "setting": "[18]", "result": 97.9, "unit": "%"},
      {"measurement": "remaining at 1 h, 100 µM", "setting": "[19]", "result": 96, "unit": "%"},
      {"measurement": "remaining at 10 min", "setting": "[20]", "result": 99.4, "unit": "%"},
      {"measurement": "remaining at 0.5 h", "setting": "[21]", "result": 99.1, "unit": "%"},
      {"measurement": "half-life", "setting": "[22]", "result": "> 4.82", "unit": "h"},
      {"measurement": "remaining at 1 h, 100 µM", "setting": "[23]", "result": 102, "unit": "%"},
      {"measurement": "IC50", "setting": "Cytochrome P450 1A2", "result": "> 50", "unit": "µM"},
      {"measurement": "IC50", "setting": "Cytochrome P450 2C9", "result": "> 50", "unit": "µM"},
      {"measurement": "IC50", "setting": "Cytochrome P450 2C19", "result": "> 50", "unit": "µM"},
      {"measurement": "IC50", "setting": "Cytochrome P450 2D6", "result": "> 50", "unit": "µM"},
      {"measurement": "CLint", "setting": "[24]", "result": "< 9.6", "unit": "µL/min/mg"},
      {"measurement": "CLH", "setting": "[25]", "result": "< 2.28", "unit": "mL/h/kg"},
      {"measurement": "half-life at 1 h, 100 µM", "setting": "in vitro [26]", "result": "> 2.42", "unit": "h"},
      {"measurement": "half-life at 1 h, 100 µM", "setting": "in vitro [27]", "result": "> 2.42", "unit": "h"}
    ]}
  ]
}
